# Experimental data: patent US20250249056A1, “CANCER THERAPIES COMPRISING A NUCLEAR EXPORT INHIBITOR AND AN ONCOLYTIC VIRUS” (priority 2022, published 2025)
# System: Colo205 cells
# Format: cell-based, human
smiles,measurement,setting,value
O=C(/C=C\n1cnc(-c2cc(C(F)(F)F)cc(C(F)(F)F)c2)n1)NNc1cnccn1 [selinexor],"Differential protein expression, SCAF1",,100
same,"Differential protein expression, A2ML1","A8K2U0, selinexor-treated cytoplasm vs control cytoplasm",3.444
same,"Differential protein expression, PHF20L1","A8MW92, selinexor-treated cytoplasm vs control cytoplasm",0.01
same,"Differential protein expression, KPNA7","A9QM74, selinexor-treated cytoplasm vs control cytoplasm",0.149
same,"Differential protein expression, accession B2CWB5","B2CWB5 (gene symbol not given), selinexor-treated cytoplasm vs control cytoplasm",0.01
same,"Differential protein expression, m033R","B2CWE0, selinexor-treated cytoplasm vs control cytoplasm",0.01
same,"Differential protein expression, m047R","B2CWF4, selinexor-treated cytoplasm vs control cytoplasm",0.01
same,"Differential protein expression, m060R","B2CWG7, selinexor-treated cytoplasm vs control cytoplasm",0.01
same,"Differential protein expression, accession B2CWJ3","B2CWJ3 (gene symbol not given), selinexor-treated cytoplasm vs control cytoplasm",0.01
same,"Differential protein expression, accession B2CWL4","B2CWL4 (gene symbol not given), selinexor-treated cytoplasm vs control cytoplasm",100
same,"Differential protein expression, m149R","B2CWQ5, selinexor-treated cytoplasm vs control cytoplasm",100
same,"Differential protein expression, HNRNPCL2","B2RXH8, selinexor-treated cytoplasm vs control cytoplasm",2.92
same,"Differential protein expression, HNRNPCL3","B7ZW38, selinexor-treated cytoplasm vs control cytoplasm",2.963
same,"Differential protein expression, m107L","E2CZJ6, selinexor-treated cytoplasm vs control cytoplasm",100
same,"Differential protein expression, m126R","E2CZL5, selinexor-treated cytoplasm vs control cytoplasm",0.193
same,"Differential protein expression, m001R","E2CZP2, selinexor-treated cytoplasm vs control cytoplasm",3.839
same,"Differential protein expression, m009L","E2CZQ3, selinexor-treated cytoplasm vs control cytoplasm",0.01
same,"Differential protein expression, m055R","E2CZV0, selinexor-treated cytoplasm vs control cytoplasm",2.342
same,"Differential protein expression, m072L","E2CZW7, selinexor-treated cytoplasm vs control cytoplasm",3.124
same,"Differential protein expression, m086L","E2CZY1, selinexor-treated cytoplasm vs control cytoplasm",0.01
same,"Differential protein expression, AGRN","O00468, selinexor-treated cytoplasm vs control cytoplasm",0.494
same,"Differential protein expression, SDCBP","O00560, selinexor-treated cytoplasm vs control cytoplasm",2.743
same,"Differential protein expression, MPHOSPH10","O00566, selinexor-treated cytoplasm vs control cytoplasm",2.761
same,"Differential protein expression, UBE2C","O00762, selinexor-treated cytoplasm vs control cytoplasm",0.459
same,"Differential protein expression, SCD","O00767, selinexor-treated cytoplasm vs control cytoplasm",0.297
same,"Differential protein expression, M-T1","O10625, selinexor-treated cytoplasm vs control cytoplasm",3.839
same,"Differential protein expression, CLDN4","O14493, selinexor-treated cytoplasm vs control cytoplasm",10.645
same,"Differential protein expression, UTY","O14607, selinexor-treated cytoplasm vs control cytoplasm",0.01
same,"Differential protein expression, MEIS2","O14770, selinexor-treated cytoplasm vs control cytoplasm",0.01
same,"Differential protein expression, BACH1","O14867, selinexor-treated cytoplasm vs control cytoplasm",100
same,"Differential protein expression, IRF6","O14896, selinexor-treated cytoplasm vs control cytoplasm",2.466
same,"Differential protein expression, MYL12B","O14950, selinexor-treated cytoplasm vs control cytoplasm",2.249
same,"Differential protein expression, XPO1","O14980, selinexor-treated cytoplasm vs control cytoplasm",0.335
same,"Differential protein expression, MAPK13","O15264, selinexor-treated cytoplasm vs control cytoplasm",2.006
same,"Differential protein expression, DDX3Y","O15523, selinexor-treated cytoplasm vs control cytoplasm",100
same,"Differential protein expression, MAFG","O15525, selinexor-treated cytoplasm vs control cytoplasm",0.453
same,"Differential protein expression, CLDN3","O15551, selinexor-treated cytoplasm vs control cytoplasm",2.357
same,"Differential protein expression, SPINT1","O43278, selinexor-treated cytoplasm vs control cytoplasm",4.255
same,"Differential protein expression, KDELR3","O43731, selinexor-treated cytoplasm vs control cytoplasm",0.379
same,"Differential protein expression, ZBTB14","O43829, selinexor-treated cytoplasm vs control cytoplasm",0.01
same,"Differential protein expression, HNRNPCL1","O60812, selinexor-treated cytoplasm vs control cytoplasm",2.92
same,"Differential protein expression, NOS1AP","O75052, selinexor-treated cytoplasm vs control cytoplasm",0.01
same,"Differential protein expression, SIN3B","O75182, selinexor-treated cytoplasm vs control cytoplasm",0.01
same,"Differential protein expression, ZNF217","O75362, selinexor-treated cytoplasm vs control cytoplasm",2.042
same,"Differential protein expression, TAF5L","O75529, selinexor-treated cytoplasm vs control cytoplasm",100
same,"Differential protein expression, BANF1","O75531, selinexor-treated cytoplasm vs control cytoplasm",2.438
same,"Differential protein expression, PIAS2","O75928, selinexor-treated cytoplasm vs control cytoplasm",100
same,"Differential protein expression, ZFAND5","O76080, selinexor-treated cytoplasm vs control cytoplasm",0.48
same,"Differential protein expression, SUPT7L","O94864, selinexor-treated cytoplasm vs control cytoplasm",0.01
same,"Differential protein expression, HEXIM1","O94992, selinexor-treated cytoplasm vs control cytoplasm",3.29
same,"Differential protein expression, SVIL","O95425, selinexor-treated cytoplasm vs control cytoplasm",0.01
same,"Differential protein expression, NUDT3","O95989, selinexor-treated cytoplasm vs control cytoplasm",3.124
same,"Differential protein expression, DHFR","P00374, selinexor-treated cytoplasm vs control cytoplasm",0.419
same,"Differential protein expression, OAS1","P00973, selinexor-treated cytoplasm vs control cytoplasm",2.17
same,"Differential protein expression, TIMP1","P01033, selinexor-treated cytoplasm vs control cytoplasm",2.021
same,"Differential protein expression, CSTA","P01040, selinexor-treated cytoplasm vs control cytoplasm",3.956
same,"Differential protein expression, FOS","P01100, selinexor-treated cytoplasm vs control cytoplasm",0.01
same,"Differential protein expression, KRT14","P02533, selinexor-treated cytoplasm vs control cytoplasm",3.261
same,"Differential protein expression, KRT6A","P02538, selinexor-treated cytoplasm vs control cytoplasm",3.082
same,"Differential protein expression, APOD","P05090, selinexor-treated cytoplasm vs control cytoplasm",7.079
same,"Differential protein expression, S100A8","P05109, selinexor-treated cytoplasm vs control cytoplasm",3.524
same,"Differential protein expression, CENPB","P07199, selinexor-treated cytoplasm vs control cytoplasm",0.01
same,"Differential protein expression, PRSS2","P07478, selinexor-treated cytoplasm vs control cytoplasm",0.479
same,"Differential protein expression, HNRNPC","P07910, selinexor-treated cytoplasm vs control cytoplasm",2.948
same,"Differential protein expression, ASNS","P08243, selinexor-treated cytoplasm vs control cytoplasm",0.353
same,"Differential protein expression, NFIC","P08651, selinexor-treated cytoplasm vs control cytoplasm",0.01
same,"Differential protein expression, KRT16","P08779, selinexor-treated cytoplasm vs control cytoplasm",4.248
same,"Differential protein expression, TOP2A","P11388, selinexor-treated cytoplasm vs control cytoplasm",0.458
same,"Differential protein expression, CDK4","P11802, selinexor-treated cytoplasm vs control cytoplasm",0.445
same,"Differential protein expression, NEFH","P12036, selinexor-treated cytoplasm vs control cytoplasm",2.248
same,"Differential protein expression, CDH1","P12830, selinexor-treated cytoplasm vs control cytoplasm",4.064
same,"Differential protein expression, KRT10","P13645, selinexor-treated cytoplasm vs control cytoplasm",2.123
same,"Differential protein expression, KRT5","P13647, selinexor-treated cytoplasm vs control cytoplasm",2.042
same,"Differential protein expression, CD59","P13987, selinexor-treated cytoplasm vs control cytoplasm",2.269
same,"Differential protein expression, PLA2G2A","P14555, selinexor-treated cytoplasm vs control cytoplasm",2.128
same,"Differential protein expression, CCNB1","P14635, selinexor-treated cytoplasm vs control cytoplasm",0.377
same,"Differential protein expression, MYL6B","P14649, selinexor-treated cytoplasm vs control cytoplasm",2.392
same,"Differential protein expression, HNRNPL","P14866, selinexor-treated cytoplasm vs control cytoplasm",2.044
same,"Differential protein expression, GLUL","P15104, selinexor-treated cytoplasm vs control cytoplasm",2.48
same,"Differential protein expression, ATF2","P15336, selinexor-treated cytoplasm vs control cytoplasm",0.01
same,"Differential protein expression, FOSL2","P15408, selinexor-treated cytoplasm vs control cytoplasm",100
same,"Differential protein expression, H1-3","P16402, selinexor-treated cytoplasm vs control cytoplasm",14.354
same,"Differential protein expression, ZKSCAN1","P17029, selinexor-treated cytoplasm vs control cytoplasm",100
same,"Differential protein expression, SDC1","P18827, selinexor-treated cytoplasm vs control cytoplasm",2.678
same,"Differential protein expression, ATF1","P18846, selinexor-treated cytoplasm vs control cytoplasm",100
same,"Differential protein expression, MYL12A","P19105, selinexor-treated cytoplasm vs control cytoplasm",2.269
same,"Differential protein expression, IMPDH1","P20839, selinexor-treated cytoplasm vs control cytoplasm",0.485
same,"Differential protein expression, TGM1","P22735, selinexor-treated cytoplasm vs control cytoplasm",2.137
same,"Differential protein expression, MYL9","P24844, selinexor-treated cytoplasm vs control cytoplasm",2.253
same,"Differential protein expression, DNMT1","P26358, selinexor-treated cytoplasm vs control cytoplasm",0.424
same,"Differential protein expression, RBL1","P28749, selinexor-treated cytoplasm vs control cytoplasm",0.395
same,"Differential protein expression, GRN","P28799, selinexor-treated cytoplasm vs control cytoplasm",2.493
same,"Differential protein expression, KDM5A","P29375, selinexor-treated cytoplasm vs control cytoplasm",0.01
same,"Differential protein expression, SERPINB3","P29508, selinexor-treated cytoplasm vs control cytoplasm",34.048
same,"Differential protein expression, SLC7A1","P30825, selinexor-treated cytoplasm vs control cytoplasm",0.272
same,"Differential protein expression, S100A7","P31151, selinexor-treated cytoplasm vs control cytoplasm",2.547
same,"Differential protein expression, RRM2","P31350, selinexor-treated cytoplasm vs control cytoplasm",0.284
same,"Differential protein expression, CASP14","P31944, selinexor-treated cytoplasm vs control cytoplasm",2.655
same,"Differential protein expression, CDA","P32320, selinexor-treated cytoplasm vs control cytoplasm",2.571
same,"Differential protein expression, GBP1","P32455, selinexor-treated cytoplasm vs control cytoplasm",0.01
same,"Differential protein expression, KRT9","P35527, selinexor-treated cytoplasm vs control cytoplasm",0.486
same,"Differential protein expression, MYH9","P35579, selinexor-treated cytoplasm vs control cytoplasm",2.051
same,"Differential protein expression, MYH10","P35580, selinexor-treated cytoplasm vs control cytoplasm",2.213
same,"Differential protein expression, HSD17B2","P37059, selinexor-treated cytoplasm vs control cytoplasm",2.045
same,"Differential protein expression, FDFT1","P37268, selinexor-treated cytoplasm vs control cytoplasm",0.453
same,"Differential protein expression, PBX3","P40426, selinexor-treated cytoplasm vs control cytoplasm",0.01
same,"Differential protein expression, SLC1A4","P43007, selinexor-treated cytoplasm vs control cytoplasm",0.439
same,"Differential protein expression, MATR3","P43243, selinexor-treated cytoplasm vs control cytoplasm",5.731
same,"Differential protein expression, RFX3","P48380, selinexor-treated cytoplasm vs control cytoplasm",0.152
same,"Differential protein expression, SERPINB4","P48594, selinexor-treated cytoplasm vs control cytoplasm",5.894
same,"Differential protein expression, HNRNPA3","P51991, selinexor-treated cytoplasm vs control cytoplasm",2.069
same,"Differential protein expression, ZNF131","P52739, selinexor-treated cytoplasm vs control cytoplasm",0.01
same,"Differential protein expression, RBM5","P52756, selinexor-treated cytoplasm vs control cytoplasm",0.01
same,"Differential protein expression, PLK1","P53350, selinexor-treated cytoplasm vs control cytoplasm",0.01
same,"Differential protein expression, CEBPG","P53567, selinexor-treated cytoplasm vs control cytoplasm",0.01
same,"Differential protein expression, MAPK12","P53778, selinexor-treated cytoplasm vs control cytoplasm",2.006
same,"Differential protein expression, POLG","P54098, selinexor-treated cytoplasm vs control cytoplasm",0.27
same,"Differential protein expression, EPHB3","P54753, selinexor-treated cytoplasm vs control cytoplasm",0.496
same,"Differential protein expression, PKNOX1","P55347, selinexor-treated cytoplasm vs control cytoplasm",0.01
same,"Differential protein expression, MAZ","P56270, selinexor-treated cytoplasm vs control cytoplasm",0.01
same,"Differential protein expression, HDAC4","P56524, selinexor-treated cytoplasm vs control cytoplasm",0.458
same,"Differential protein expression, PCBP3","P57721, selinexor-treated cytoplasm vs control cytoplasm",2.306
same,"Differential protein expression, CKS1B","P61024, selinexor-treated cytoplasm vs control cytoplasm",0.422
same,"Differential protein expression, POLR2F","P61218, selinexor-treated cytoplasm vs control cytoplasm",2.135
same,"Differential protein expression, SNRPE","P62304, selinexor-treated cytoplasm vs control cytoplasm",2.173
same,"Differential protein expression, SNRPF","P62306, selinexor-treated cytoplasm vs control cytoplasm",2.172
same,"Differential protein expression, SNRPD1","P62314, selinexor-treated cytoplasm vs control cytoplasm",2.056
same,"Differential protein expression, SNRPD2","P62316, selinexor-treated cytoplasm vs control cytoplasm",2.406
same,"Differential protein expression, RHOB","P62745, selinexor-treated cytoplasm vs control cytoplasm",0.01
same,"Differential protein expression, ARF1","P84077, selinexor-treated cytoplasm vs control cytoplasm",2.133
same,"Differential protein expression, H3-3A; H3-3B","P84243, selinexor-treated cytoplasm vs control cytoplasm",3.295
same,"Differential protein expression, HSPG2","P98160, selinexor-treated cytoplasm vs control cytoplasm",0.441
same,"Differential protein expression, KRT24","Q2M2I5, selinexor-treated cytoplasm vs control cytoplasm",2.716
same,"Differential protein expression, SMU1","Q2TAY7, selinexor-treated cytoplasm vs control cytoplasm",2.21
same,"Differential protein expression, KRT71","Q3SY84, selinexor-treated cytoplasm vs control cytoplasm",4.935
same,"Differential protein expression, COA6","Q5JTJ3, selinexor-treated cytoplasm vs control cytoplasm",2.872
